Assay [1] addresses T1, ADRA2C (Homo sapiens, UniProt P18825).
T1 sequence (P18825 1-462): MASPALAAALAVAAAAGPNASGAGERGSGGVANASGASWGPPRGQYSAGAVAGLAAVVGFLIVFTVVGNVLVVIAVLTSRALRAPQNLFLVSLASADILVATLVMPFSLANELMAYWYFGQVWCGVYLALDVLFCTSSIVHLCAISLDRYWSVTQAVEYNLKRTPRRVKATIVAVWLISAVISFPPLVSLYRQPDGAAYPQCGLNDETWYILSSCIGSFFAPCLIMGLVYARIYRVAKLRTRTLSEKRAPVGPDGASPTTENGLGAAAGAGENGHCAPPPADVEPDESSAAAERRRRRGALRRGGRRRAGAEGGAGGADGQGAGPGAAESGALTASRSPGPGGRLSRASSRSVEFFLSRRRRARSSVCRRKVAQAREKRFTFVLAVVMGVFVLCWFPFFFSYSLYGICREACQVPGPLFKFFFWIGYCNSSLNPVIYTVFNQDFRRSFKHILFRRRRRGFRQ
The settings on record: varying concentrations of agonist.

Assay [2] addresses ADRB1 (Homo sapiens, UniProt P08588).
Assay [3] addresses T2, ADRB2 (Homo sapiens, UniProt P07550).
In assay [4] the target is human Type I Interferon Receptor (IFNAR1-TEV-NIa-Pro cleavage (L)-tTA with IFNAR2.2-TEV, in HTL5B8.1 cells) (human; tobacco etch virus) (UniProt P17181). Briefly: cell-based or functional assay.
The target of assay [5] is T3, human Type I Interferon Receptor (Homo sapiens, UniProt P17181+P48551).
T3 sequence (P17181 28-557): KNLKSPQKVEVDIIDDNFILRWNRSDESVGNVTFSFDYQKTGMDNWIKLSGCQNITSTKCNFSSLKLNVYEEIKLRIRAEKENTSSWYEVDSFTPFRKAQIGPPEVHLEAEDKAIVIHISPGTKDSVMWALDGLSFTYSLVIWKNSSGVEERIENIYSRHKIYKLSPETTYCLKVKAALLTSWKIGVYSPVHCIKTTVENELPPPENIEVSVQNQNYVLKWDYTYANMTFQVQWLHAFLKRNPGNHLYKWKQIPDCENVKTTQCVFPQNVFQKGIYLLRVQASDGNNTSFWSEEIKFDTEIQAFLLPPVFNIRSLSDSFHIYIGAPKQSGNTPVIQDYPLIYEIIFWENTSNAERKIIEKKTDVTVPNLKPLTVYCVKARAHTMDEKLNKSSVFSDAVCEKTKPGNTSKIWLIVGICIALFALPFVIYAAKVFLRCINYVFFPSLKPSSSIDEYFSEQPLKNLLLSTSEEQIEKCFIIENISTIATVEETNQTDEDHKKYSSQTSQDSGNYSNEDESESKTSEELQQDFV
T3 sequence (P48551 27-515): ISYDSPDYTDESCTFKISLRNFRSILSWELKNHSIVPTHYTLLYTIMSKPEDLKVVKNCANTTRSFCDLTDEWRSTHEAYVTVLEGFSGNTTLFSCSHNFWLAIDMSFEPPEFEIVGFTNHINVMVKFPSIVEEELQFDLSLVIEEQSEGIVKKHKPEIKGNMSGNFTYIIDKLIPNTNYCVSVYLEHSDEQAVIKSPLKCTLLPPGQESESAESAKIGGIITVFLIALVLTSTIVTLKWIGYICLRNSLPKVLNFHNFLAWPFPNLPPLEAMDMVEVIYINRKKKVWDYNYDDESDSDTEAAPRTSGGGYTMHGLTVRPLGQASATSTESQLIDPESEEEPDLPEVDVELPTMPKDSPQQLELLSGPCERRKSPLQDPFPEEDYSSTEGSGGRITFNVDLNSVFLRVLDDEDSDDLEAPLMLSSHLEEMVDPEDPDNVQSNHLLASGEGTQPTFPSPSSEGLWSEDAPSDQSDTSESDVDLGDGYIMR
The assay can be described thus: IFNAR1-tTA / IFNAR2.2-TEV luciferase reporter assay in HTL5B8.1 cells. It is filed as cell-based. The settings on record: 5000 U/ml, 18-20 hours. For orientation: Reporter assays use an easily measured gene product as a stand-in for the process of interest.

The target in assay [6] is T3, human Type I Interferon Receptor. The assay can be described thus: IFNAR1-GAL4-NF-κB / IFNAR2.2-TEV luciferase reporter assay in CHO-K1 cells. Further details: expressed in transfected cells; host or cells: CHO-K1; CMV-STAT1, CMV-STAT2 and pFR-Luc co-transfected. The assay is classed as cell-based.
The target of assay [7] is T4, DRD2 (Homo sapiens, UniProt P14416). As to conditions: 1 μM each agonist; mixed clone 41 and clone 1H10 cells; about 24 hours.
For assay [8], the target named is T4, DRD2. As to conditions: 10 μM; DRD2-AVPR2 Tail-tTA, low efficiency cleavage site.
For assay [9], the target named is DRD2 (Homo sapiens, UniProt P14416+P30550). The settings on record: μM dopamine; DRD2-GRPR 42aa Tail-tTA, low efficiency cleavage site.
In assay [10] the target is T2, ADRB2. As to conditions: 1 μM each agonist; mixed clone 41 and clone 1H10 cells; about 24 hours.
Assay [11] deals with dopamine 2 receptor (DRD2) (Homo sapiens, UniProt P14416). The settings on record: 10 μM, medium efficiency cleavage site.
dopamine 2 receptor (DRD2), sequence (P14416 whole entry): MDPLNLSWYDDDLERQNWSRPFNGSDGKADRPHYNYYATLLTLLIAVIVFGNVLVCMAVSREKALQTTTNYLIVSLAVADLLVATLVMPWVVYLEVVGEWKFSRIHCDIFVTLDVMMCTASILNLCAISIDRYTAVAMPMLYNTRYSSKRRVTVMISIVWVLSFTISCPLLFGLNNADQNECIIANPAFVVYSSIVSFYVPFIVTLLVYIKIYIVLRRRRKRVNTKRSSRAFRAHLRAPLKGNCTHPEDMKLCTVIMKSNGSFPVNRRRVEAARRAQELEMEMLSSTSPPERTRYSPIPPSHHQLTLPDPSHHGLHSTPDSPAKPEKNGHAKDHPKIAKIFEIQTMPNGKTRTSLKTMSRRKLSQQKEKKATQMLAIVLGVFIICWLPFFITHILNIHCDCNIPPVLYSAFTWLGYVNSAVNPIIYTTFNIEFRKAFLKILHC
For assay [12], the target named is EGFR-TEV-NIa-Pro cleavage (Leu)-tTA (human) (UniProt P00533). The assay can be described thus: cell-based or functional assay.
Assay [13] has as its target ADRA1A (Homo sapiens, UniProt P35348). As to conditions: 10 μM, low efficiency cleavage site.
Assay [14] addresses T2, ADRB2. It is filed as cell-based. As to conditions: ADRB2-tTA with low efficiency cleavage site; clone 41 cells.
Assay [15] addresses DRD2-GRPR 42aa Tail-tTA fusion construct containing the low efficiency cleavage site (UniProt P14416). Briefly: cell-based or functional assay.
The target of assay [16] is chemokine (C-C motif) receptor 5 (CCR5) (Homo sapiens, UniProt P51681). Briefly: CCR5-tTA reporter assay in clone 34 cells. The assay is classed as cell-based. As to conditions: 1 μg/ml; low efficiency cleavage site. From the text: α Constructs were also made to establish an assay for the G protein coupled chemokine (C—C motif) receptor 5 (CCR5). The CCR5 coding region (Genbank Accession Number: NM_000579) (SEQ ID NO: 32) was modified to place Not I site at the 5′ end and replace the stop codon with a BamHI site using PCR with the primers
The first modified coding region was cut with ClaI and BamHI and the second was cut with BsaI and ClaI. Both fragments were ligated into the AVPR2-tTA constructs described supra, which had been cut with EcoRI and BamHI. This replaced the entire coding sequence of AVPR2 with the coding sequence of CCR5.
Assays were carried out using 1 μg/ml “Regulated on Activation, Normal T-Cell Expressed and Secreted” (RANTES), a known agonist for CCR5.

Assay [17] addresses CCR5-tTA fusion construct containing the low efficiency cleavage site (UniProt P51681). Briefly: cell-based or functional assay.
Assay [18] deals with serotonin receptor 1a (HTR1A) (Homo sapiens, UniProt P08908). The assay is classed as cell-based. The settings on record: 10 μM; low efficiency cleavage site.
Source text: A similar set of constructs were made to establish an assay for the G protein coupled serotonin receptor 1a (HTR1A).
Assay [19] deals with epidermal growth factor receptor (EGFR) (Homo sapiens, UniProt P00533). Briefly: EGFR-tTA / PLC Gamma1-TEV luciferase reporter assay in HTL5B8.1 cells. The assay is classed as cell-based. As to conditions: 100 ng/ml; six hours.

Read-outs that look alike come from different tables or passages of the source.

ADRB1, sequence (P08588 whole entry): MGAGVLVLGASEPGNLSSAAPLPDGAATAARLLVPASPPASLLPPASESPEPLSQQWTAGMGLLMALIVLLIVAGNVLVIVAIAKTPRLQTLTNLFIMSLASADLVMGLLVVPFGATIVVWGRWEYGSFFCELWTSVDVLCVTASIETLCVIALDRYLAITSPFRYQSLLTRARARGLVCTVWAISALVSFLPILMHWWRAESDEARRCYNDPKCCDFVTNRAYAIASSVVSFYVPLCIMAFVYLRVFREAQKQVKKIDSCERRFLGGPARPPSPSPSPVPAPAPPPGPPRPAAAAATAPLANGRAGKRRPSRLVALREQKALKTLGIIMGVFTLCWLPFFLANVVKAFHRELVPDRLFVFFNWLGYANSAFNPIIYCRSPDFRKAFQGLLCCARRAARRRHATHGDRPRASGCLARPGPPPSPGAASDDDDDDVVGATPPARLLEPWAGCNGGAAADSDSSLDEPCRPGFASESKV
CCR5-tTA fusion construct containing the low efficiency cleavage site, sequence (P51681 whole entry, the tested form may be a part): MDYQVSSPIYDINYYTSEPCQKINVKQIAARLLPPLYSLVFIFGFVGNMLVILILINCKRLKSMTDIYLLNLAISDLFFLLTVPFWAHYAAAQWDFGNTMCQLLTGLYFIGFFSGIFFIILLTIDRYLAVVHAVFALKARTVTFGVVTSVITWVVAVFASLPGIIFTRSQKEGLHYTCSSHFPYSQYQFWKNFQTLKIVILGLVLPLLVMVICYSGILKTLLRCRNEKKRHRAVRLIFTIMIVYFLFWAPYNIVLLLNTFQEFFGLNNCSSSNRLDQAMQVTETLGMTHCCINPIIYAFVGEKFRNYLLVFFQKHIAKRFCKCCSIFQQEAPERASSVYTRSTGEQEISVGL
DRD2-GRPR 42aa Tail-tTA fusion construct containing the low efficiency cleavage site, sequence (P14416 other isoform, or with tags, fused parts or gaps): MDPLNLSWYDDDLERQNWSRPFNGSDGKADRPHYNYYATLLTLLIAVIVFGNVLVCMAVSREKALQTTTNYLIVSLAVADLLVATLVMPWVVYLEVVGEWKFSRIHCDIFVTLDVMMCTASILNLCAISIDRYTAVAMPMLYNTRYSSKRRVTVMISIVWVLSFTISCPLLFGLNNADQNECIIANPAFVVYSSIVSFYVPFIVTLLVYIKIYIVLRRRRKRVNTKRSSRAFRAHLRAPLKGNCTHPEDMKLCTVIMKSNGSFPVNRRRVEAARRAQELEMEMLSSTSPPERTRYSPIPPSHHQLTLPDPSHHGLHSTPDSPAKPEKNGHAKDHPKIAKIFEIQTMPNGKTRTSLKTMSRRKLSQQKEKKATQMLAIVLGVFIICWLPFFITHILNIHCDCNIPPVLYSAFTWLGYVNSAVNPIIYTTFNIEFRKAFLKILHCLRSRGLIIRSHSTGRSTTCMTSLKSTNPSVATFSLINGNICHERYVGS

For `Brc1c(NC2=NCCN2)ccc2nccnc12` [UK14,304], in assay [1], the “agonist response, UK14,304 compared with isoproterenol” value is “respond to much lower concentration of UK14,304 than isoproterenol”. Further, the “agonist effect on the receptor” value in assay [2] (any concentration used, FIG. 11A) is “no effect”; in assay [3] (any concentration used, FIG. 11B), “no effect”. “human interferon-beta (from UniProt P01574 22-187) (ligand)”: the fold increase in reporter gene activity (luciferase), 5000 U/ml IFN-β in assay [4] amounted to 10 fold. For the molecule IFN-α, the “increase in reporter gene activity” value is 15 fold in [5]; 3 fold in [6] (5000 U/ml, 6 hours, CHO-K1 cells with reporter, IFNAR and STAT constructs). Also, the “effect on reporter gene activity” value in assay [6] (CHO-K1 cells transfected with the reporter and control plasmids) is “no effect”. With `Cl.NCCc1ccc(O)c(O)c1` [dopamine, dopamine HCl], in assay [7], the “induction of luciferase activity” value stood at 3.5 fold. The “maximal response, induction of reporter gene expression over the background” value (“maximal response … over the background” for short) in assay [8] is “approximately 60 fold”; in assay [11] (ARRB1-TEV-NIa protease fusion) it was 2.1 fold; in assay [11] (ARRB2-TEV-NIa protease fusion), 2.7 fold. Moreover, in assay [9], the “maximal response, increase in reporter gene activity” value is given as “approximately 30 fold”. Further, in [10], the “induction of beta-galactosidase reporter gene activity” value is reported as “remained unchanged”. Regarding “human Transforming Growth Factor-Alpha (from UniProt P01135 40-89) (ligand)”, the fold increase of luciferase reporter gene activity, 100 ng/ml human Transforming Growth Factor-Alpha in [12] was determined as 18.3 fold. In the case of `CNC[C@H](O)c1ccc(O)c(O)c1` [epinephrine], in assay [13] (ADRA1A-GRPR 23aa Tail-tTA), the “maximal response … over the background” value is listed as “approximately 102 fold”. Further, in assay [13] (ADRA1A-GRPR 42aa Tail-tTA), the “maximal response, increase in reporter gene activity” value is reported as “approximately 14 fold”.

In the case of `Nc1ncnc2c1ncn2[C@@H]1O[C@H](COP(=O)(O)OP(=O)(O)OP(=O)(O)O)[C@@H](O)[C@H]1O` [ATP], the “induction of reporter gene activity by an agonist of other, endogenous GPCRs (P2Y1, P2Y2)” value in assay [14] was “Stimulation of another GPCR pathway was irrelevant”.

In assay [15], “ARRB2-TEV-NIa protease fusion (from UniProt P32121 1-409)” came in with a fold increase in reporter gene activity (luciferase), dopamine of 30 fold. Regarding “RANTES: Regulated on Activation, Normal T-Cell Expressed and Secreted, a known agonist for CCR5”, the “maximal response … over the background” value in [16] is reported as “approximately 40 fold”. Molecule “Regulated on Activation, Normal T-Cell Expressed and Secreted (RANTES) (from UniProt P13501 24-91) (ligand)” came in with a maximal fold induction of reporter gene expression over the background, 1 µg/ml RANTES in [17] of 40 fold. As for `COC(=O)[C@@H]1[C@H]2C[C@H]3c4[nH]c5ccccc5c4CCN3C[C@@H]2CC[C@@H]1O` [yohimbine], the entries for the “inhibition of receptor response by antagonist” value in assay [2] (FIG. 11F) and in [3] (FIG. 11G) were “no effect” and “inhibition at only the very highest concentrations tested”, respectively. For the molecule human interferon-alpha (ligand), the fold increase in reporter gene activity (luciferase), 5000 U/ml IFN-α in assay [4] was found to be 15 fold. `NCCc1c[nH]c2ccc(O)cc12` [serotonin]: in assay [18], the “maximal response, induction of reporter gene expression over background level” value was determined as 4.6 fold. With “human Transforming Growth Factor—Alpha: human Transforming Growth Factor-Alpha, EGFR agonist”, in assay [19], the “increase of luciferase reporter gene activity” value is 18.3 fold.

The values are drawn from patent US20080274913A1, “Multiplex Array Useful for Assaying Protein-Protein Interaction” (priority 2005, published 2008).
